Data taken from ChEMBL document CHEMBL5226289, “Discovery of natural anti-inflammatory alkaloids: Potential leads for the drug discovery for the treatment of inflammation” (Eur J Med Chem, 2021).
pIC50: −log10 of the molar value. ≈ marks a conversion by molar mass, not a printed value. One block for each compound: values may come before it.

How the values were obtained:
Rattus norvegicus [1] = assay: Antiinflammatory activity in Wistar albino rat assessed as inhibition of carrageenan-induced paw edema at 20 mg/kg, po preadministered for 1 hrs followed by carrageenan administration and measured upto 10 hrs by Plethysmometer; assay type: functional; details: time <= 11 hrs
Rattus norvegicus [2] = assay: Antiinflammatory activity in Wistar albino rat assessed as inhibition of CFA-induced paw edema at 10 mg/kg, po preadministered for 24 hrs followed by CFA administration and measured after 16 days; assay type: functional; details: 408 h, time 17 day
[3] = Inhibition of goat 5-LOX by spectrophotometric analysis; set-up: species or system Capra hircus
[4] = biological target: T1, Prostaglandin G/H synthase 2 (Homo sapiens, UniProt P35354); assay: Inhibition of human recombinant COX-2 expressed in baculovirus infected Sf21 cells using arachidonic acid as substrate by spectrophotometric analysis
T1 sequence (P35354 whole entry): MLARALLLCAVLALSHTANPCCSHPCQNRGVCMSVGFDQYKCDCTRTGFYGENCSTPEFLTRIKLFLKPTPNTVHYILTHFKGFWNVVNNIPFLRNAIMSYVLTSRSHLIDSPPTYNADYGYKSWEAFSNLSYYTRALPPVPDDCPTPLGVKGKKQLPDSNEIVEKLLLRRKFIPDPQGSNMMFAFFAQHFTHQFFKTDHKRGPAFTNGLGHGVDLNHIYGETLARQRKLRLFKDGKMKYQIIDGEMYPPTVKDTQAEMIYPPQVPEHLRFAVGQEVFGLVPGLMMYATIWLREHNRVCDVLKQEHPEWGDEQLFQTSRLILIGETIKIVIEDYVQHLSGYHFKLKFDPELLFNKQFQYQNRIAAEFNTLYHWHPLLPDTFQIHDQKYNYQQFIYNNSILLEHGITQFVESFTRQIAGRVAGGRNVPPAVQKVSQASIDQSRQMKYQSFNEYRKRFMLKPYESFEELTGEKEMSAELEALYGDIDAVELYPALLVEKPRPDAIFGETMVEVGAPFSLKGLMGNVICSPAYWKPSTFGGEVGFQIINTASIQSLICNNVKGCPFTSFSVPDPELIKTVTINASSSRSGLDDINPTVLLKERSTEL

SMILES: OC1CCN2Cc3ccccc3N=C12 (centres undefined)
- inhibition in vivo at 20 mg/kg (Rattus norvegicus [1]): 59.5%

SMILES: O=c1c2ccccc2nc2n1CCC2O (centres undefined)
- inhibition in vivo at 10 mg/kg (Rattus norvegicus [2]): 63.9%

- IC50 [3]: 900 µg/mL (≈ 2810 µM)
- pIC50 [4]: 2.60
SMILES: CC[C@H](CCCC[C@@H]1/C=C\CN/C=C\C1)C[C@@H]1CCC(=O)ON1
